In patent US20240166643A1, “IMIDAZO[1,2-A]PYRIDINE COMPOUNDS AND THEIR USE IN THERAPY” (Imperial College Innovations Limited, priority 2020, published 2024):
Like-named read-outs stand apart in the source and are kept apart here. Marks after values point to notes of the source that are not given here.

Experiments:
Human NMT1 (HsNMT1) = Human NMT1 (HsNMT1) (Homo sapiens, UniProt P30419); assay: biochemical
[1] = system: Plasmodium falciparum strain NF54; assay: SYBR Green assay, Plasmodium falciparum strain NF54; settings: NF54, read-out: Pf EC50 strain NF54
[2] = biological target: Plasmodium vivax (Pv) NMT (Plasmodium vivax (strain Salvador I), UniProt A5K1A2); assay: biochemical
Sequence of Plasmodium vivax (Pv) NMT (A5K1A2 1-410): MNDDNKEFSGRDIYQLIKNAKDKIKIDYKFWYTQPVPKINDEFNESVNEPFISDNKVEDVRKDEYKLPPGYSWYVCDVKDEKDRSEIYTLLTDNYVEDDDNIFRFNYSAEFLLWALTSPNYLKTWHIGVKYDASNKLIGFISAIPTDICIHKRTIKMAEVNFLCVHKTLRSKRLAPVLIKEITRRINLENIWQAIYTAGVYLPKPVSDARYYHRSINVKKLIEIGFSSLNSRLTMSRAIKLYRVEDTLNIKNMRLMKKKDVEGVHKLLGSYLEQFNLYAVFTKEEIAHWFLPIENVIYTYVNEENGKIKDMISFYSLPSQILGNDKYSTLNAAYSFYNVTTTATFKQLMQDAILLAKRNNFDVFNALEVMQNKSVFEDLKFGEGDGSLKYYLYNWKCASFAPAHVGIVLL

[3] = system: Plasmodium falciparum 3D7; assay: SYBR Green assay, Plasmodium falciparum strain 3D7; assay type: cell-based; settings: P. falciparum strain 3D7, 96 h incubation, read-out: Pf EC50 strain 3D7
in vitro = settings: male, Sprague-Dawley, rat, pooled cryopreserved rat hepatocytes, pH 7.4
[4] = Rat clearance and bioavailability (iv and oral dosing); assay type: in vivo; settings: male, Sprague-Dawley, plasma; for half-life: iv 1 mg/kg, read-out: Rat iv t1/2 (converted)
[5] = system: P. falciparum Pf3D7^0087/N9; assay: Mouse malaria model, NODscidIL2Rγnull mice engrafted with human erythrocytes; settings: for average parasitemia values: 50 mg/kg po per day on day 3, 4, 5 and 6 post-infection
[6] = oral 5 mg/kg, cassette dosing of 4 compounds

Sequence of Human NMT1 (HsNMT1) (P30419 whole entry, looked up): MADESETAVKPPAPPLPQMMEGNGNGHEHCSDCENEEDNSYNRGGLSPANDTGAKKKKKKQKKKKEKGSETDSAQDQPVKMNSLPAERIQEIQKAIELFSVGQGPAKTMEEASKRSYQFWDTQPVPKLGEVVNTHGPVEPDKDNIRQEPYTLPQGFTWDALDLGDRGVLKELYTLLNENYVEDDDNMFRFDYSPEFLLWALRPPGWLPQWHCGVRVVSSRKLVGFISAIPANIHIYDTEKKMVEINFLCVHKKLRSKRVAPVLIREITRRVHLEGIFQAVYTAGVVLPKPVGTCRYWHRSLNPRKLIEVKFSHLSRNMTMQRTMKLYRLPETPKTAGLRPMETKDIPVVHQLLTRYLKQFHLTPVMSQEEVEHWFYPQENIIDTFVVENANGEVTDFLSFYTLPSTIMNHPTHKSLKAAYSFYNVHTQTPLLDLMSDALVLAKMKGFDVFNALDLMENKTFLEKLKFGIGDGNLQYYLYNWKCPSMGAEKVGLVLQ

SMILES	IC50 (Human NMT1 (HsNMT1))	EC50 [1]	IC50 [2]	EC50 [3]	half-life at 1 µM (in vitro)	also measured
O=C(NCc1cnc2ccccn12)C1CN(c2nc(N3CC4CNC4C3)ncc2Cl)C1 (centres unmarked) [Example 7]	110 nM	3200 nM	40 nM	–	–	–
COc1cnc(N2CCN[C@H](C)C2)nc1N1CC(C(=O)NC(C)(C)c2cnc3ccccn23)C1 [Example 36]	–	12 nM	6.2 nM	–	–	–
C[C@H]1CN(c2ncc(Cl)c(N3CCC(C(=O)NC(C)(C)c4cnc5ccccn45)CC3)n2)CCN1C [Example 101, 1-{5-chloro-2-[(3S)-3,4-dimethylpiperazin-1-yl]pyrimidin-4-yl}-N-(2-{imidazo[1,2-a]pyridin-3-yl}propan-2-yl)piperidine-4-carboxamide]	310 nM	–	33 nM	> 1000 nM	1.74 h	half-life ([4]; cassette dosing of 4 compounds): 5.4 h; bioavailability [4, 6]: 32%
C[C@H]1CN(c2ncc(Cl)c(N3CC(C(=O)NC(C)(C)c4cnc5ccccn45)C3)n2)C[C@H](C)N1C [Example 95, 1-{5-chloro-2-[(3S,5S)-3,4,5-trimethylpiperazin-1-yl]pyrimidin-4-yl}-N-(2-{imidazo[1,2-a]pyridin-3-yl}propan-2-yl)azetidine-3-carboxamide]	17 nM	–	34 nM	150 nM	1.51 h	–
O=C(NCc1nnc2ccccn12)C1CN(c2nc(N3CCCNCC3)ncc2Cl)C1 [Example 112]	319 nM	> 10000 nM	–	–	–	–
C[C@@H]1CN(c2ncc(F)c(N3CC(C(=O)NC(C)(C)c4cnc5ccccn45)C3)n2)C[C@H](C)N1C [Example 90, 1-{5-fluoro-2-[(3R,5S)-3,4,5-trimethylpiperazin-1-yl]pyrimidin-4-yl}-N-(2-{imidazo[1,2-a]pyridin-3-yl}propan-2-yl)azetidine-3-carboxamide]	94 nM	–	19 nM	300 nM	> 3 h	–
COCCN1CCN(c2ncc(Cl)c(N3CC(C(=O)NC(C)(C)c4cnc5ccccn45)C3)n2)CC1 [Example 72]	82 nM	–	7.7 nM	> 590 nM	> 3 h	half-life ([4]; cassette dosing of 4 compounds): 2.7 h; bioavailability [4, 6]: 34%
CCN(CC)CCCC(C)Nc1ccnc2cc(Cl)ccc12 (centres unmarked) [Chloroquine (CQ), chloroquine, reference compound]	–	–	–	–	–	average parasitemia values ([5]; day 0 post infection): 0.01%; average parasitemia values ([5]; day 3 post infection): 0.80%; average parasitemia values ([5]; day 4 post infection): 0.24%; average parasitemia values ([5]; day 5 post infection): 0.05%; average parasitemia values ([5]; day 6 post infection): 0.01%; average parasitemia values ([5]; day 7 post infection): 0.00* %
COc1cnc(N2CCN(C)[C@@H](C)C2)nc1N1CC(C(=O)NC(C)(C)c2cnc3ccccn23)C1 [Example 85, 1-{2-[(3S)-3,4-dimethylpiperazin-1-yl]-5-methoxypyrimidin-4-yl}-N-(2-{imidazo[1,2-a]pyridin-3-yl}propan-2-yl)azetidine-3-carboxamide]	6.3 nM	–	8 nM	14 nM	> 3 h	–
CCN(CC)CCCC(C)Nc1ccnc2cc(Cl)ccc12 (centres unmarked) [chloroquine, reference compound]	–	–	–	–	–	mice / smears parasite free ([5]; 4×50 mg/kg p.o., day 7): parasite-free
CC(NC(=O)C1CN(c2nc(N3CCNCC3)ncc2F)C1)c1cnc2ccccn12 (centres unmarked) [Example 31]	180 nM	1300 nM	19 nM	–	–	–
CN1CCN(c2ncc(F)c(N3CC(C(=O)N(C)C(C)(C)c4cnc5ccccn45)C3)n2)CC1 [Example 78]	400 nM	–	120 nM	> 1000 nM	> 3 h	half-life ([4]; cassette dosing of 4 compounds): 2.3 h; bioavailability [4, 6]: 73%
C[C@@H]1CN(c2ncc(Cl)c(N3CC(C(=O)NC(C)(C)c4cnc5ccccn45)C3)n2)C[C@H](C)N1C [Example 89, 1-{5-chloro-2-[(3R,5S)-3,4,5-trimethylpiperazin-1-yl]pyrimidin-4-yl}-N-(2-{imidazo[1,2-a]pyridin-3-yl}propan-2-yl)azetidine-3-carboxamide]	27 nM	–	12 nM	88 nM	> 3 h	–
CC(NC(=O)C1CN(c2nc(N3CCCNCC3)ncc2F)C1)c1cnc2ccccn12 (centres unmarked) [Example 9]	79 nM	2100 nM	41 nM	–	–	–
O=C(NCc1cnc2ccccn12)C1CN(c2nc(N3CC4CNC4C3)ncc2F)C1 (centres unmarked) [Example 8]	1020 nM	> 10000 nM	470 nM	–	–	–
C[C@H]1CN(C)CCN1c1ncc(Cl)c(N2CC(C(=O)N(C)C(C)(C)c3cnc4ccccn34)C2)n1 [Example 107, 1-{5-chloro-2-[(2S)-2,4-dimethylpiperazin-1-yl]pyrimidin-4-yl}-N-(2-{imidazo[1,2-a]pyridin-3-yl}propan-2-yl)-N-methylazetidine-3-carboxamide]	–	–	–	140 nM	–	half-life ([4]; cassette dosing of 4 compounds): 1.7 h; bioavailability [4, 6]: 37%
CC(C)N1CCN(c2ncc(Cl)c(N3CC(C(=O)NC(C)(C)c4cnc5ccccn45)C3)n2)CC1 [Example 71]	72 nM	–	11 nM	560 nM	> 3 h	–
Cc1nc2ccccn2c1CNC(=O)C1CN(c2nc(N3CC4CNC4C3)ncc2F)C1 (centres unmarked) [Example 13]	380 nM	> 10000 nM	660 nM	–	–	–
COc1cnc(N2CCCNCC2)nc1N1CC(C(=O)NCc2cnc3ccccn23)C1 [Example 19]	–	3600 nM	59 nM	–	–	–

SMILES	IC50 (Human NMT1 (HsNMT1))	EC50 [1]	IC50 [2]	EC50 [3]	half-life at 1 µM (in vitro)	also measured
CN(c1ncc(Cl)c(N2CC(C(=O)NC(C)(C)c3cnc4ccccn34)C2)n1)C1CCNC1 (centres unmarked) [Example 41]	19 nM	45 nM	7.2 nM	–	–	–
COCC1CN(c2ncc(Cl)c(N3CC(C(=O)NC(C)(C)c4cnc5ccccn45)C3)n2)CCN1C (centres unmarked) [Example 80]	23 nM	–	7.9 nM	97 nM	0.743 h	–
COc1cnc(N2CCCNCC2)nc1N1CC(C(=O)NC(C)c2c(C)nc3ccccn23)C1 (centres unmarked) [Example 23]	27 nM	340 nM	30 nM	–	–	–
CN(Cc1cnc2ccccn12)C(=O)C1CN(c2nc(N3CCCNCC3)ncc2Cl)C1 [Example 17]	360 nM	> 5000 nM	140 nM	–	–	–
O=C(NCc1cnc2cc(Cl)ccn12)C1CN(c2nc(N3CCCNCC3)ncc2Cl)C1 [Example 22]	–	450 nM	3.8 nM	–	–	–
Cc1nc2ccccn2c1CNC(=O)C1CN(c2nc(N3CCCNCC3)ncc2Cl)C1 [Example 18]	20 nM	2700 nM	8.8 nM	–	–	–
O=C(NCc1cnc2ccccn12)C1CN(c2nc(N3CCNCC3)ncc2Cl)C1 [Example 25]	–	1090 nM	15 nM	–	–	–
C[C@H]1CN(c2ncc(Cl)c(N3CC(C(=O)NCc4cnc5ccccn45)C3)n2)CCN1 [Example 27]	–	2820 nM	37 nM	–	–	–
Cc1nc2ccccn2c1C(C)NC(=O)C1CN(c2nc(N3CCCNCC3)ncc2Cl)C1 (centres unmarked) [Example 24]	6.3 nM	180 nM	12 nM	–	–	–
Cc1nc2ccccn2c1CNC(=O)C1CN(c2nc(N3CCCNCC3)ncc2F)C1 [Example 12]	130 nM	> 2500 nM	200 nM	–	–	–
CN1CCN(c2ncc(Cl)c(N3CC(C(=O)N(C)C(C)(C)c4cnc5ccccn45)C3)n2)CC1 [Example 73]	–	–	–	810 nM	> 3 h	half-life ([4]; cassette dosing of 4 compounds): 3.6 h; bioavailability [4, 6]: 65%
CC1CN(c2ncc(Cl)c(N3CC(C(=O)N(C)C(C)(C)c4cnc5ccccn45)C3)n2)CCN1C (centres unmarked) [Example 74]	–	–	–	120 nM	> 3 h	half-life ([4]; administered as a single compound): 2.2 h; bioavailability ([4]; oral 10 mg/kg, administered as a single compound): 28%
CN1CCCN(c2ncc(F)c(N3CC(C(=O)NCc4cnc5ccccn45)C3)n2)CC1 [Example 52]	–	> 10000 nM	47 nM	–	–	–
COc1cnc(N2CCN[C@@H](C)C2)nc1N1CC(C(=O)NC(C)(C)c2cnc3ccccn23)C1 [Example 39]	–	85 nM	12 nM	–	–	–
CN1CCCN(c2ncc(Cl)c(N3CC(C(=O)NCc4cnc5ccccn45)C3)n2)CC1 [Example 53]	–	260 nM	5.8 nM	–	0.4 h	–
O=C(NCc1cnc2ccccn12)C1CN(c2nc(N3CCCNCC3)ncc2F)C1 [Example 6]	–	> 10000 nM	130 nM	–	–	–
CC1CN(c2ncc(F)c(N3CC(C(=O)NCc4cnc5ccccn45)C3)n2)CCN1 (centres unmarked) [Example 28]	–	3040 nM	95 nM	–	–	–
C[C@H]1CN(c2ncc(F)c(N3CC(C(=O)NCc4cnc5ccccn45)C3)n2)CCN1 [Example 26]	–	> 2330 nM	240 nM	–	–	–
C[C@@H]1CN(c2ncc(F)c(N3CC(C(=O)NC(C)(C)c4cnc5ccccn45)C3)n2)CCN1C [Example 84, 1-{2-[(3R)-3,4-dimethylpiperazin-1-yl]-5-fluoropyrimidin-4-yl}-N-(2-{imidazo[1,2-a]pyridin-3-yl}propan-2-yl)azetidine-3-carboxamide]	33 nM	–	4.6 nM	34 nM	2.41 h	–
